The values that follow come from US20120157492A1, “ANTIBIOTIC DRUG” (priority 2008, published 2012).

As a reminder, the MIC50 is the lowest concentration that inhibits either 50% of growth or 50% of the strains tested, depending on the study. In general, MIC90 refers to the lowest concentration that inhibits either 90% of growth or 90% of the strains tested, depending on the study. A higher MIC90 goes with lower susceptibility. For orientation: AUC(0-inf) means the area under the concentration-time curve extrapolated to infinity. The bioavailability is dose-corrected exposure relative to a reference, in per cent.

Molecules are shown by their SMILES. In brackets after ≈: the same amount, converted by molar mass. Like-named read-outs stand apart in the source and are kept apart here.

The test system of data set [1] is MRSA-CIP (R): Clinical isolate of MRSA-ciprofloxacin resistant strain. The experiment in a line: MIC by broth microdilution, ciprofloxacin-resistant MRSA. Format: cell-based, S. aureus. To be noted: Staphylococcus aureus. As for the experimental part: (§1) Minimum inhibitory concentrations (MICs) were determined by the Broth microdilution method following the guidelines of the Clinical and Laboratory Standards Institute (CLSI). See, e.g., “Methods for Dilution Antimicrobial Susceptibility Tests for Bacterial That Grow Aerobically,” CLSI 2006, Approved standard-7th Ed. M7-A7; and “Performance standards for Antimicrobial Susceptibility Testing,” CLSI 2007, 17th Informational Supplement, M100-S17. Note that since there is no CLSI recommended broth microdilution (BMD) method for N. gonorrhoeae, the BMD method recommended for N. meningitis was used.
(§2) MICs were determined using the broth microdilution method.
In general terms: Broth dilution looks for growth in wells or tubes with falling amounts of substance.

Data set [2] concerns MRSA-CIP (S): Clinical isolate of MRSA-ciprofloxacin sensitive strain. As to the kind of experiment: MIC by broth microdilution, ciprofloxacin-sensitive MRSA. It counts as cell-based. As to conditions: Staphylococcus aureus. As for the experimental part: as §1, §2
Data set [3] deals with S. pneumo-Levo (R): Clinical isolate of S. pnemoniae Levofloxacin resistant strains. As to the kind of experiment: MIC by broth microdilution, levofloxacin-resistant S. pneumoniae. It counts as cell-based. As to conditions: Streptococcus pneumoniae. As for the experimental part:
as §1, §2

Data set [4] deals with S. pneumo-Levo (S): Clinical isolate of S. pnemoniae Levofloxacin sensitive strains. As to the kind of experiment: MIC by broth microdilution, levofloxacin-sensitive S. pneumoniae. It counts as cell-based. As to conditions: Streptococcus pneumoniae. As for the experimental part: as §1, §2
The subject of data set [5] is 8 ATCC reference strains and 10 clinical strains (E. coli, P. aeruginosa, S. aureus, E. faecalis, E. faecium, S. pneumoniae, H. influenzae, N. gonorrhoeae). The experiment in a line: Inhibition of bacteria, MIC by broth microdilution (CLSI). It counts as cell-based. As for the experimental part:
Minimum inhibitory concentrations (MICs) were determined by the Broth microdilution method following the guidelines of the Clinical and Laboratory Standards Institute (CLSI). See, e.g., “Methods for Dilution Antimicrobial Susceptibility Tests for Bacterial That Grow Aerobically,” CLSI 2006, Approved standard-7th Ed. M7-A7; and “Performance standards for Antimicrobial Susceptibility Testing,” CLSI 2007, 17th Informational Supplement, M100-S17. Note that since there is no CLSI recommended broth microdilution (BMD) method for N. gonorrhoeae, the BMD method recommended for N. meningitis was used. Each of the three compounds was dissolved in water before sterile filtration to prepare stock solutions. The stock solutions were stored at −20° C. in aliquots. […] The 2× stock was dispensed at 50 μl per well into the 96-well microtitre plates. The plates were either used fresh or stored at −80° C. before use. To conduct the test, an aliquot of the frozen bacterial isolates was subcultured onto sheep blood agar for all species except that H. influenzae and N. gonorrhoeae were subculuted on chocolate plates. All plate media were purchased from BBL (Becton Dickinson Microbiology System, Cockeysville, Md.). The day before the antimicrobial susceptibility testing, all bacteria were sub-cultured again to obtain fresh starting cultures. […]

Data set [6] in a line: Pharmacokinetic study in rats (IV and PO). It counts as in vivo. To be noted: male, Sprague-Dawley, plasma, rat; for half-life: read-out: terminal half-life (t1/2) (converted); for bioavailability: oral, read-out: oral bioavailability (% F). As for the experimental part:
Each of the malic acid salts of Compound 1 and Compound 1′ was dissolved in 0.7% lactic acid and 3% dextrose in water at a pH about 4.5 and 2.5% L-glutamic acid in water at a pH about 5.4 to provide solutions used in this pharmacokinetic study. Male Sprague-Dawley rats (BioLASCO Taiwan Co., Ltd., Taipei, Taiwan) weighing 300-400 g were surgically implanted with polyethylene (PE-50) cannula in the jugular vein for blood sampling while under pentobarbital anesthesia the day before the in-life phase. The rats were treated with a Compound 1 or Compound 1′ solution via intravenous injection (IV) at a dose of 2.5 mg/kg (N=3) or by oral gavage (PO) at a dose of 5 mg/kg (N=4). Dose levels were based on the free base form of the compounds. For PO study, the rats were fasted overnight with water ad libitum, and then dosed the next day. Serial blood samples were collected from animals pre-dose, at 5, 10 (IV only), 15, and 30 min, and at 1, 2, 4, 6, 8, 12, and 24 hours post-dose and heparinized plasma was recovered after centrifugation. Concentrations of the test compound in blood plasma were determined by liquid chromatography-mass spectrometry analysis (MDS SCIEX, API 3000, Applied Biosystems, CA, USA) with a lower limit of quantitation of 2 ng/mL. Standard pharmacokinetic parameters were assessed by non-compartmental analysis using WinNonlin (Version 4.0, Pharsight, CA, USA). The area under the concentration vs. time curve from the time of dosing to infinity (AUC(0-inf)) was calculated by the linear trapezoidal rule. Oral bioavailability (% F) was calculated from the dose-normalized ratio of plasma exposure following oral administration to the intravenous plasma exposure in the rats by the following equation: % F=(AUCpo/AUCiv)×(Div/Dpo)×100% where D is the dose and AUC is the area-under-the-plasma-concentration-time-curve from 0 to infinity.

Consider `COc1c(N2C[C@H](C)C[C@H](N)C2)ccc2c(=O)c(C(=O)O)cn(C3CC3)c12` [Compound 1, 7-((3S,5R)-3-amino-5-methylpiperidin-1-yl)-1-cyclopropyl-8-methoxy-4-oxo-1,4-dihydroquinoline-3-carboxylic acid], for which the MIC50 in data set [1] was found to be 1 µg/mL (≈ 2.69 µM); in data set [2] it was 0.03 µg/mL (≈ 0.0808 µM); in data set [3], 0.25 µg/mL (≈ 0.673 µM); in data set [4] it was 0.03 µg/mL (≈ 0.0808 µM). For the same compound, the MIC90 is 1 µg/mL (≈ 2.69 µM) in data set [1], 0.06 µg/mL (≈ 0.162 µM) in data set [2], 1 µg/mL (≈ 2.69 µM) in data set [3] and 0.06 µg/mL (≈ 0.162 µM) in data set [4]. In data set [5], the “MICs against the tested bacterial strains, compared with ciprofloxacin” value is given as “low MICs comparable with, or even lower than, that of ciprofloxacin”. In addition, the “efficacy in inhibiting bacteria compared to malic acid salt of Compound 1′” value in data set [5] is “more efficacious in inhibiting in some S. aureus, H. influenzae, and P. aeruginosa stains”. The AUC(0-inf) in data set [6] (IV injection, 2.5 mg/kg) came out at 1530 ± 66 ng·h/mL; in data set [6] (PO, 5 mg/kg), 1400 ± 464 ng·h/mL. Besides, the half-life in data set [6] (IV injection, 2.5 mg/kg) is 2.47 ± 0.801 h; in data set [6] (PO, 5 mg/kg), 3.58 ± 1.7 h. In addition, the Cmax in data set [6] (PO, 5 mg/kg, read-out: maximum of concentration (Cmax)) is 622 ± 170 ng/mL. Moreover, the Tmax in data set [6] (PO, 5 mg/kg, read-out: time at the maximum of concentration (Tmax)) amounted to 0.25 h. Besides, the bioavailability in data set [6] (5 mg/kg) was around 45.9%.
Regarding `COc1c(N2C[C@@H](C)C[C@H](N)C2)ccc2c(=O)c(C(=O)O)cn(C3CC3)c12` [Compound 1′, reference compound], the MIC50 in data set [1] worked out at 1 µg/mL (≈ 2.69 µM); in data set [2], 0.03 µg/mL (≈ 0.0808 µM); in data set [3] it was 0.5 µg/mL (≈ 1.35 µM); in data set [4] it was 0.06 µg/mL (≈ 0.162 µM). The MIC90 in data set [1] was determined as 2 µg/mL (≈ 5.38 µM); in data set [2], 0.06 µg/mL (≈ 0.162 µM); in data set [3], 2 µg/mL (≈ 5.38 µM); in data set [4] it was 0.06 µg/mL (≈ 0.162 µM). Further, in data set [6] (5 mg/kg), the bioavailability was found to be 13.2 ± 3.3%.
As to `C[C@H]1COc2c(N3CCN(C)CC3)c(F)cc3c(=O)c(C(=O)O)cn1c23` [Levo, Levofloxacin], the MIC50 in data set [3] was above 128 µg/mL; in data set [4], 16 µg/mL (≈ 44.3 µM).
